Data from paper PMC8769072, “Proteome‐scale mapping of binding sites in the unstructured regions of the human proteome” (Molecular Systems Biology, 2022).

Test system: immobilized GST-tagged bait protein domains
Assay: ProP-PD phage selections (HD2 P8, sublibraries, HD2 P3, HD1 P8) with NGS and confidence level
Format: binding, human
Conditions: for HD confidence / HD count proportions / HD mean counts: library HD
[1] = bait CALM1_EF-hand__P0DP23_2_149, library HD2, benchmarking set of validated motif instances, TRUE = motif instance recovered in the ProP-PD selection
[2] = library HD2, bait EPS15_EH__P42566_121_215, best matching peptide
[3] = library HD2, bait EPS15_EH__P42566_121_215, confidence level of best matching peptide (4 High, 2-3 Medium, 1 Low)
[4] = library HD2, bait EPS15_EH__P42566_121_215, whether the validated benchmark motif instance was recovered in the ProP-PD selection (TRUE/FALSE)
[5] = bait PABP-B_PABP__P11940_544_623, HD2 library, confidence level (1-4) of best matching selected peptide
[6] = bait PABP-B_PABP__P11940_544_623, HD2 library, specificity score of best matching selected peptide
[7] = bait PABP-B_PABP__P11940_544_623, HD2 library, whether the validated benchmark motif instance was recovered in the ProP-PD selection (TRUE/FALSE)
[8] = bait SIN3A_PAH__Q96ST3_295_383, HD2 library, whether the validated benchmark motif instance was recovered in the ProP-PD selection (TRUE/FALSE)
[9] = library HD2, bait YAP1_WW_1_P46937_169_207, validated benchmark motif instance, in_library_check TRUE, TRUE/FALSE = instance recovered in ProP-PD selection
[10] = HD2 library, bait TNKS_TANK-peptide-bind__O95271_174_649, known motif instance of the benchmarking set found (TRUE) or not found (FALSE) among selected peptides
[11] = bait ANKRA2_Ank__Q9H9E1_142_313
[12] = bait ANKRA2_Ank__Q9H9E1_142_313, mean normalised NGS counts
[13] = bait ANKRA2_Ank__Q9H9E1_142_313, mean raw NGS counts, all selections
[14] = HD2 library, bait CALM1_EF-hand__P0DP23_2_149, benchmark motif instance, in_library_check FALSE, in_library_coverage 0
[15] = bait PTK2_Focal-AT__Q05397_891_1050, HD2 library, whether the validated benchmark motif instance was recovered in the ProP-PD selection (TRUE/FALSE)
[16] = HD2 library, bait TLN1_PTB__Q9Y490_309_401, known motif instance of the benchmarking set found (TRUE) or not found (FALSE) among selected peptides
[17] = library HD2, bait KLC1_TPR__Q07866_203_497, whether the validated benchmark motif instance was recovered in the ProP-PD selection (TRUE/FALSE)
[18] = bait AP2B1_adaptin__P63010_700_937, library HD2, benchmarking set of validated motif instances, TRUE = motif instance recovered in the ProP-PD selection
[19] = bait KPNA4_Arm (O00629 68-487), HD2 library, benchmark motif instance recovered in the ProP-PD selection (TRUE/FALSE)

## LNKYQGFIFDIVTK [SCN5A]
[1]
  motif_found: FALSE

## LNPFLTKSSGDVHLSI
[2]
  best_specificity: 1
[3]
  best_confidence: 4
[4]
  motif_found: TRUE

## LNPNAEVWGAPVLHLE
[5]
  best_confidence: 4
[6]
  best_specificity: 1
[7]
  motif_found: TRUE

## LNQDFSGFQLLVDVALKRAAEM
[8]
  motif_found: FALSE

## LPIPGTPPPNYDSLRLQP
Bait NEDD4_WW_4_P46934_890_928, HD2 library, whether the validated benchmark motif instance was recovered in the ProP-PD selection (TRUE/FALSE)
  motif_found: FALSE
[9]
  motif_found: FALSE

## LPLEFSDDLDVVGDGMQC
Library HD2, bait WDR5_WD_1234567_P61964_21_334, validated benchmark motif instance, in_library_check TRUE, TRUE/FALSE = instance recovered in ProP-PD selection
  motif_found: FALSE

## LPLYTSPSLPNITLGLP,PLPLYTSPSLPNITLGLPATGPSA [HDAC4]
Bait ANKRA2_Ank__Q9H9E1_142_313, library HD2, benchmarking set of validated motif instances, TRUE = motif instance recovered in the ProP-PD selection
  motif_found: TRUE

## LPRTQPDGTSVPGEPA
HD2 library, bait TNKS_TANK-peptide-bind__O95271_174_649, best matching selected peptide
  best_specificity: 1
HD2 library, bait TNKS_TANK-peptide-bind__O95271_174_649, confidence level of best matching selected peptide
  best_confidence: 2
[10]
  motif_found: TRUE

## LQDVQPSPINPFSAFF
[2]
  best_specificity: 1
[3]
  best_confidence: 2
[4]
  motif_found: TRUE

## LQLPSLDDQVIPARLP
[11]
  HD confidence: 3
[12]
  HD count proportions: 0.001339
[13]
  HD mean counts: 12.75

## LQQSIAREPSAPSIPTPAYQ
Library HD2, bait TSG101_UEV__Q99816_1_145, validated benchmark motif instance, in_library_check TRUE, TRUE/FALSE = instance recovered in ProP-PD selection
  motif_found: FALSE

## LQYFRDHINDIIKIQAFIRANKARDDYKTLINA [IQGAP1 836-854]
[14]
  motif_found: FALSE

## LRRGQILWFRGLNRIQTQIDVINTFQTGASFKGVLRRQNMGQHLDVKLVPSSSYIKVVKAFHSS [ATP2B4]
[1]
  motif_found: FALSE

## LSELDRLLLELN
[15]
  motif_found: FALSE

## LSKLDVLVLAASYIAH
Bait SIN3A_PAH__Q96ST3_295_383, library HD2 P8 nucleus
  HD2_nucleus confidence: 4

## LSKMQQNGYENPTYKFFEQMQN
[16]
  motif_found: FALSE

## LSLGSAGERGEAEGCPPSREAE
[10]
  motif_found: FALSE

## LSSPLVPGNPFEEPTCINP
[4]
  motif_found: FALSE

## LSVNAPEFYPSGYSSS
[5]
  best_confidence: 3
[6]
  best_specificity: 1
[7]
  motif_found: TRUE

## LSVSPARWAEEYLEQSEEK
Bait PEX14_Pex14__O75381_16_84, HD2 library, whether the validated benchmark motif instance was recovered in the ProP-PD selection (TRUE/FALSE)
  motif_found: FALSE

## LSWPDLLSDPSIVGSN
Bait CALM1 EF-hand (P0DP23, 2-149), HD2 library selection with 1mM_CaCl, confidence level (4 = High, 2 or 3 = Medium, 1 = Low)
  HD2-1mM_CaCl confidence: 3
Bait CALM1 EF-hand (P0DP23, 2-149), HD2 library selection, confidence level (4 = High, 2 or 3 = Medium, 1 = Low)
  HD2 confidence: 3

## LYKEATSTFTNITYRGT-----
[16]
  motif_found: FALSE

## LYNFPQSPPAQYSPMH
Bait CEP55_EABR__Q53EZ4_160_217, HD2 P8 nucleocytoplasmic sublibrary, confidence level (4 = High, 2-3 = Medium, 1 = Low)
  HD2_nc confidence: 4
Bait CEP55_EABR__Q53EZ4_160_217, HD2 P8 nucleocytoplasmic sublibrary, mean NGS counts over replicate selections
  HD2_nc mean counts: 101.3
Bait CEP55_EABR__Q53EZ4_160_217, HD2 P8 nucleocytoplasmic sublibrary, mean proportion of NGS counts
  HD2_nc count proportions: 0.001637

## LYPTDCPPSYEAVMGL
Bait NEDD4_WW_4_P46934_890_928, HD2 P3 library, confidence level (4 = High, 2-3 = Medium, 1 = Low)
  p3_HD2 confidence: 3
Bait NEDD4_WW_4_P46934_890_928, HD2 P3 library, mean NGS counts over replicate selections
  p3_HD2 mean counts: 285.3
Bait NEDD4_WW_4_P46934_890_928, HD2 P3 library, mean proportion of NGS counts
  p3_HD2 count proportions: 0.005597
Bait NEDD4_WW_4_P46934_890_928, HD2 P8 cytoplasm sublibrary, confidence level (4 = High, 2-3 = Medium, 1 = Low)
  HD2_cytoplasm confidence: 4

## MDDLDALLADLESTTSHIS
[15]
  motif_found: FALSE

## MDVFMKGLSKAKEGVVAAA [SNCA]
[1]
  motif_found: FALSE

## MSARPSLPPLPAKPAG
[11]
  HD confidence: 2
Bait ANKRA2_Ank__Q9H9E1_142_313, library HD2 P8
  HD2 confidence: 2
[12]
  HD count proportions: 0.0001907
[13]
  HD mean counts: 3.25

## MSIETLLEAARFLEWQAQQQ
[8]
  motif_found: FALSE

## MSSLYPSLEDLKVDQA
Bait PDCD6IP_Alix-V-domain__Q8WUM4_360_702
  HD confidence: 2
Bait PDCD6IP_Alix-V-domain__Q8WUM4_360_702, library HD2 P3
  p3_HD2 confidence: 3
Bait PDCD6IP_Alix-V-domain__Q8WUM4_360_702, library HD2 P3, mean normalised NGS counts
  p3_HD2 count proportions: 0.4191
Bait PDCD6IP_Alix-V-domain__Q8WUM4_360_702, library HD2 P3, mean raw NGS counts, all selections
  p3_HD2 mean counts: 20392.666666666668
Bait PDCD6IP_Alix-V-domain__Q8WUM4_360_702, library HD2 P8
  HD2 confidence: 4
Bait PDCD6IP_Alix-V-domain__Q8WUM4_360_702, library HD2 P8 nucleocytoplasmic
  HD2_nc confidence: 3
Bait PDCD6IP_Alix-V-domain__Q8WUM4_360_702, library HD2 P8 nucleocytoplasmic, mean normalised NGS counts
  HD2_nc count proportions: 0.343
Bait PDCD6IP_Alix-V-domain__Q8WUM4_360_702, library HD2 P8 nucleocytoplasmic, mean raw NGS counts, all selections
  HD2_nc mean counts: 24438.333333333332
Bait PDCD6IP_Alix-V-domain__Q8WUM4_360_702, mean normalised NGS counts
  HD count proportions: 0.4404
Bait PDCD6IP_Alix-V-domain__Q8WUM4_360_702, mean raw NGS counts, all selections
  HD mean counts: 2175.8

## NATRQQQLEWDDSTLSY-----
[17]
  motif_found: FALSE

## NDIDEVIIPTAPLYKQILNL [TSG101 319-324]
HD2 library, bait TSG101_UEV__Q99816_1_145, benchmark motif instance, in_library_check FALSE, in_library_coverage 0
  motif_found: FALSE

## NEEINIASSDSEVEIVGVQEHARC
HD2 library, bait SUMO1_SUMO__P63165_1_101, known motif instance of the benchmarking set found (TRUE) or not found (FALSE) among selected peptides
  motif_found: FALSE

## NGAEDDDDDEFGEFGGFSEVS [AFTPH]
[18]
  motif_found: FALSE

## NGSSSVNWPPEFRPGEPWKGYPNIDPET
[7]
  motif_found: FALSE

## NHWQKIRTMVNLPVISPFK [ITPKA 165-183]
[14]
  motif_found: FALSE

## NIHNSKAPKKNRLRRKSSTR
[19]
  motif_found: FALSE

## NKKVEVIDLTIDSSSD
Bait SUMO1_SUMO__P63165_1_101, HD2 library, confidence level (1-4) of best matching selected peptide
  best_confidence: 4
Bait SUMO1_SUMO__P63165_1_101, HD2 library, specificity score of best matching selected peptide
  best_specificity: 1
Bait SUMO1_SUMO__P63165_1_101, HD2 library, whether the validated benchmark motif instance was recovered in the ProP-PD selection (TRUE/FALSE)
  motif_found: TRUE

## NLEEKKRYDREFLLGFQFIFA
Library HD2, bait EIF4E_eIF4E__P06730_1_217, whether the validated benchmark motif instance was recovered in the ProP-PD selection (TRUE/FALSE)
  motif_found: FALSE

## NLNGTIKDDFSEFDNLRTSKKTAE [EPN2]
[18]
  motif_found: FALSE

## NLQLPSLDEQVIPARL
[11]
  HD confidence: 3
[12]
  HD count proportions: 0.0005556
[13]
  HD mean counts: 7.75

## NMTPYRSPPPYVPP----
Bait NEDD4_WW_4 (P46934 890-928), HD2 library, benchmark motif instance recovered in the ProP-PD selection (TRUE/FALSE)
  motif_found: FALSE
[9]
  motif_found: FALSE

## NPFLAPGAPATSAPVN
[2]
  best_specificity: 1
[3]
  best_confidence: 3
[4]
  motif_found: TRUE

## NPNAKEFVPGVKYGNI
[5]
  best_confidence: 2
[6]
  best_specificity: 1
[7]
  motif_found: TRUE

## NRVAYIEFPPPPPLDADQI
Library HD2, bait VASP_EVH1__P50552_1_114, validated benchmark motif instance, in_library_check TRUE, TRUE/FALSE = instance recovered in ProP-PD selection
  motif_found: FALSE

## NSVTSTNLEWDDSAIAPSSEDYDF
[17]
  motif_found: FALSE

## NTPSGKSDDDFADFHSSKFSS [SYNRG]
[18]
  motif_found: FALSE

## NVQRLLEAAEFLERRE
Bait SIN3A_PAH__Q96ST3_295_383, HD2 library, confidence level (1-4) of best matching selected peptide
  best_confidence: 3
Bait SIN3A_PAH__Q96ST3_295_383, HD2 library, specificity score of best matching selected peptide
  best_specificity: 0.6
[8]
  motif_found: TRUE

## NYCPPVKRERTSSL
[19]
  motif_found: FALSE

## NYPFTWNTPSAPPGYNIAVK
HD2 library, bait TSG101_UEV__Q99816_1_145, known motif instance of the benchmarking set found (TRUE) or not found (FALSE) among selected peptides
  motif_found: FALSE

## PAAAAANELNNNLPGGAPAA
Bait SPSB1_SPRY__Q96BD6_30_231, HD2 library, whether the validated benchmark motif instance was recovered in the ProP-PD selection (TRUE/FALSE)
  motif_found: FALSE
